# Read-outs that look alike come from different tables or passages of the source. Positions of bridges follow the written chain, without caps; N, C: chain ends. Non-standard residues stand in square brackets, D forms with d. Residues, ends and D or L forms follow the SMILES beside them. hArg = N=C(N)NCCCC[C@H](N)C(=O)O; Mpa = O=C(O)CCS
# Legend:
# platelets [1] = tested on: platelets
# Procedure: Disintegrin and its variants of Example 1 were subject to test for their abilities in suppressing platelet aggregation mediated by αIIbβ3. Briefly, venous blood samples from healthy donors were collected and platelet-rich plasma was prepared therefrom. The platelet-rich plasma was then incubated with the stimulant (e.g., collagen or AP2) that triggered plug formation, then with the disintegrin and/or its variants of Example 1.
# platelets [2] = assay: Ex vivo collagen-induced platelet aggregation response; assay type: in vivo, mouse; conditions: FIG. 1 panels B and C
# Tail bleeding time = assay type: in vivo, mouse; conditions: 0.18 mg/Kg, mice
# Procedure: Male ICR mice weighing 20-30 g were used in all studies. Animals were allowed to access food and water ad libitum under controlled temperature (20±1° C.) and humidity (55%±5%). The animal experimental protocols were approved by the Laboratory Animal Use Committee of College of Medicine, National Taiwan University.
# Male ICR mice were intravenously injected through a lateral tail vein of the mouse with agents. A sharp cut of 2 mm segment from the distal tail was made 5 min after injection. The amputated tail was immediately placed into a tube filled with isotonic saline at 37° C. Bleeding time was recorded for a maximum of 10 min and the end point was the arrest of bleeding.
# integrin αIIbβ3 = target: T1, integrin αIIbβ3 (Homo sapiens, UniProt P05106+P08514); assay: Cell adhesion assay: CHO-αIIbβ3 cells to fibrinogen; assay type: cell-based; conditions: Table 3
# T1 construct: host or cells: CHO (Chinese hamster ovary) cells
# Procedure: (§1) A cell adhesion assay was used to determine the inhibitory activity of Rho, TMV, and their variants and was conducted according to previously described protocols. 96-well microtiter plates (Costar; Corning) were coated with 100 μL PBS buffer containing 200 μg/mL fibrinogen or 50 μg/mL fibronectin, and incubated overnight at 4° C. Non-specific protein binding sites were blocked by incubating each well with 200 μL of heat-denatured 1% bovine serum albumin (BSA) (Calbiochem) at room temperature for 1.5 h. The heat-denatured BSA was discarded and each well was washed twice with 200 μL PBS.
# (§2) Chinese hamster ovary (CHO) cells that expressed integrins αvβ3 (CHO-αvβ3) and αIIbβ3 (CHO-αIIbβ3) were kindly provided by Dr. Y. Takada (Scripps Research Institute) and maintained in Dulbecco's modified Eagle's medium (18, 27). Human erythroleukemia K562 cell was purchased from ATCC and cultured in Roswell Park Memorial Institute (RPMI)—1640 medium containing 10% fetal bovine serum (FBS). Harvested K562 cells were resuspended in RPMI-1640 medium containing 5% FBS. […]
# (§3) The adhesions of CHO-αIIbβ3 cells to fibrinogen, CHO-αvβ3 cells to fibrinogen, and K562 cells to fibronectin were used to determine the inhibitory activities of tested protein to integrins αIIbβ3, αvβ3, and α5β1. […] The resulting absorbance was read at 600 nm and the readings were correlated with the number of adhering cells. […]
# platelets [3] = assay: ADP-induced platelet aggregation in platelet-rich plasma; assay type: cell-based, human
# Procedure: (§4) Blood was collected from healthy volunteers who had not taken any medication for two weeks prior to the study. Informed consents were obtained from each and every participants, and the study was approved by the institutional review board of National Taiwan University Hospital. Preparation of human PS was performed in accordance with procedures described previously (Huang et al., Experimental haemtology. 2008 36(12), 1704-1713).
# (§5) Disintegrin and its variants of Example 1 were subject to test for their abilities in suppressing platelet aggregation mediated by αIIbβ3. Briefly, venous blood samples from healthy donors were collected and platelet-rich plasma was prepared therefrom. The platelet-rich plasma was then incubated with the stimulant (e.g., collagen or […]) that triggered plug formation, then with the disintegrin and/or its variants of Example 1.
# platelets [4] = assay: Platelet aggregation (inducer not stated); assay type: cell-based, human; conditions: Table 4; inducer not given
# Procedure: as §4, §5
# integrin αvβ3 = assay: Cell adhesion assay: CHO-αvβ3 cells to fibrinogen; assay type: cell-based; conditions: CHO-αvβ3 cells to immobilized fibrinogen
# Procedure: as §1, §2, §3
# T1 sequence (P08514 32-887 limits assumed): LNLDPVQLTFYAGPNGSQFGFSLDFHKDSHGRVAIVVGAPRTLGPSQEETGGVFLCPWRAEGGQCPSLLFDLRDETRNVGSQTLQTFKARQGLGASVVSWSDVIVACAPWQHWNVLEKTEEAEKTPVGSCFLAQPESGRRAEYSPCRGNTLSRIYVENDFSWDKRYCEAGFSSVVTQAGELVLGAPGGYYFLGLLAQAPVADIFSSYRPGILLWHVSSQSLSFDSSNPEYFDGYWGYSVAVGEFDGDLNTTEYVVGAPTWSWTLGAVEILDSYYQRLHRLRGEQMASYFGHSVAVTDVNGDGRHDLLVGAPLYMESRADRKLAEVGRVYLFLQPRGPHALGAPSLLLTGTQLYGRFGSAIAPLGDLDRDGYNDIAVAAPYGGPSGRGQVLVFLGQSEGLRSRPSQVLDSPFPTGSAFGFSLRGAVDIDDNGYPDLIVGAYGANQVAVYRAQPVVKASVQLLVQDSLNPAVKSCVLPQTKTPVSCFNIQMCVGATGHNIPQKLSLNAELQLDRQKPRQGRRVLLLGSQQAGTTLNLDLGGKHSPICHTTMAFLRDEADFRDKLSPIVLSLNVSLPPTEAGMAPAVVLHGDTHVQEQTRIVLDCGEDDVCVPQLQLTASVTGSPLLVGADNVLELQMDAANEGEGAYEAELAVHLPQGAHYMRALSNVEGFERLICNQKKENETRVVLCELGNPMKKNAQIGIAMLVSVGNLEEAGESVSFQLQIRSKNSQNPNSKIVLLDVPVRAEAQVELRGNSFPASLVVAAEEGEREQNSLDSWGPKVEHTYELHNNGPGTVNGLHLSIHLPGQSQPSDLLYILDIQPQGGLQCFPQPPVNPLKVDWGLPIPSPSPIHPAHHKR
# T1 sequence (P08514 891-1039 partner limits assumed): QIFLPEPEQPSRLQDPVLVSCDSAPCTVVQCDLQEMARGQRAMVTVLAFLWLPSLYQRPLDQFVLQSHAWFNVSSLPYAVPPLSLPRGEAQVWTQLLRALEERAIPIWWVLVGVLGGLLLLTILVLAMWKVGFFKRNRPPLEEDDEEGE
# T1 sequence (P05106 27-788): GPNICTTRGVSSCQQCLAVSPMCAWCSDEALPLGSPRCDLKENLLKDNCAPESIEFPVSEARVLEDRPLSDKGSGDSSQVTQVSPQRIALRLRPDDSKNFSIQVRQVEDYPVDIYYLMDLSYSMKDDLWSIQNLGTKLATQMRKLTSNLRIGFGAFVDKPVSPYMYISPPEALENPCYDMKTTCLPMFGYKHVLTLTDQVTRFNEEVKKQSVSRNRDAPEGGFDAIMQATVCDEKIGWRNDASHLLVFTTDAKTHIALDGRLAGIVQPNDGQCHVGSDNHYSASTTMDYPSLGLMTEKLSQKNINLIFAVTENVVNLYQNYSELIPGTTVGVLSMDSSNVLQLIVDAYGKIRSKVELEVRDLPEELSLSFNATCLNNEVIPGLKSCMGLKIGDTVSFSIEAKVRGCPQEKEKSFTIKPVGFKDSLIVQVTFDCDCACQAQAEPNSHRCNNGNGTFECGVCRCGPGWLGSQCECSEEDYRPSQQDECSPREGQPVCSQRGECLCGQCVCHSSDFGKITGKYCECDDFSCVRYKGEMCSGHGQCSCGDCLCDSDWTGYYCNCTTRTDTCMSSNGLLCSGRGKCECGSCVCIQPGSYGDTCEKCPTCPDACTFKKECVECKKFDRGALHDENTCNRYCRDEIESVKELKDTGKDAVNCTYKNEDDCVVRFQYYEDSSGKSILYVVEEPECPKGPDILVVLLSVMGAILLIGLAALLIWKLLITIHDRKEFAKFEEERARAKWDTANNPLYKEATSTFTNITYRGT
Compound,"IC50 on collagen-induced platelet aggregation (platelets [1]; in vitro, FIG. 1 panel A)",Collagen-induced platelet aggregation response (platelets [2]),Tail bleeding time (Tail bleeding time),"IC50 (platelets [1]; read-out: Platelet aggregation IC50 (nM), Collagen, collagen-induced)",IC50 (integrin αIIbβ3),IC50 (platelets [3]),IC50 (platelets [4]),IC50 (integrin αvβ3)
N=C(N)NCCCC[C@@H]1NC(=O)CCSSC[C@@H](C(N)=O)NC(=O)[C@@H]2CCCN2C(=O)[C@H](Cc2c[nH]c3ccccc23)NC(=O)[C@H](CC(=O)O)NC(=O)CNC1=O [eptifibatide] ([Mpa][hArg]GDWPC-NH2; disulfide 1-7),0.75 µg/mL,significantly suppressed,significantly prolong,–,–,–,–,–
Rhodostomin,–,–,–,66.8 nM,59.5 nM,81.5 nM,83.2 ± 10.4 nM,13 ± 5.7 nM

# Source: patent US11202854B2, “Disintegrin variants and uses thereof” (National Taiwan University, priority 2017, dated 2021)
